In patent US8168651B2, “Protein kinase modulators” (Cylene Pharmaceuticals, Inc., priority 2008, dated 2012):
One block for each molecule: values may come before it.

Columns and labels:
[1] = tested on: BX-PC3 (human pancreatic cancer cells) xenograft; experiment: Tumor suppression in BX-PC3 xenograft mice; assay type: in vivo
PC-3 xenografts = experiment: Tumor suppression in PC-3 xenograft animals; assay type: in vivo, NCr nu/nu mice; conditions: oral 150 mg/kg
Method: (§1) Animals were handled under laminar-flow hoods.
(§2) Gemzar™ administered at a dose of 80 mg/kg IP Q3D was used as a positive control.

MCF-7 xenografts = experiment: Tumor suppression in MCF-7 xenograft animals; assay type: in vivo, NCr nu/nu mice; conditions: oral 100 mg/kg
Method: as §1, §2

[2] = Pharmacokinetics after IV and PO dose in SD rats; assay type: in vivo; conditions: for Tmax / half-life / Cmax / Vd: rat, plasma
Method: (§3) The pharmacokinetics properties of drugs were also investigated in SD rats and beagle dogs following an intravenous (IV) bolus and oral (PO) doses of drug using similar methods. Blood samples were collected at predetermined times and the plasma separated.
(§4) Drug levels were quantified by the LC/MS/MS method described below. Noncompartmental pharmacokinetic analysis was applied for intravenous administration. […] The terminal t1/2 and C0 were calculated using the last three and the first three data points, respectively
(§5) Bioanalysis was performed using a Quattro Micro LC/MS/MS instrument in the MRM detection mode, with an internal standard (IS). Briefly, 15 µL plasma samples were prepared for analysis using protein precipitation with 120 μL of acetonitrile. The supernatants were transferred into a 96 well plate and subjected to LC-MS/MS analysis using a Phenomenex Polar-RP HPLC column. The mobile phases were 10 mM NH4HCO3 in water (Solution-A) and 10 mM NH4HCO3 in methanol (Solution-B). […] Quantitation of the analytes was performed in the batch mode with two bracketing calibration curves according to the bioanalytical sample list.

caspase-3 cell staining = experiment: Caspase-3 staining as biomarker in treated tumors; assay type: in vivo, mice; conditions: 60 mg/kg IV
Method: Caspase staining also was assessed as a biomarker for compound A1 treatment of tumors.

[3] = tested on: A549 (human lung cancer cells) xenograft; experiment: Tumor suppression in A549 xenograft mice; assay type: in vivo; conditions: oral administration
Description: as §1
The compound was delivered by oral administration for such determinations.

[4] = Pharmacokinetics after IV and PO dose in ICR mice; assay type: in vivo; conditions: for half-life: mouse, plasma
Method: […] Blood samples were collected at predetermined times and the plasma separated. Plasma was separated from the blood samples collected at 5, 15 and 30 minutes and 1, 2, 4, 8 and 24 hours post-dose.
Drug levels were quantified by the LC/MS/MS method described below. Noncompartmental pharmacokinetic analysis was applied for intravenous administration. A linear trapezoidal rule was used to compute AUC(0-24). The terminal t1/2 and C0 were calculated using the last three and the first three data points, respectively
as §5

[5] = Distribution of compound in plasma and tumors of animals; assay type: in vivo, mice
Method: The distribution of compound A1 in the plasma and tumors of animals was assessed.

[6] = Pharmacokinetics after IV and PO dose in beagle dogs; assay type: in vivo; conditions: for Cmax / Vd / half-life / Tmax: plasma
Method: as §3, §4, §5

[7] = Body weight of tumor-bearing xenograft animals; assay type: in vivo, mice; conditions: BC-PC3 xenograft; IV or IP dosing, days 1-18
HUVEC cells = experiment: Human endothelial tube formation assay (BD BioCoat Angiogenesis System); assay type: cell-based; conditions: 18 hrs
MiaPaca xenografts = experiment: Tumor suppression in MiaPaca xenograft mice; assay type: in vivo, NCr nu/nu mice
Method: as §1
Tumor volume measurements (FIG. 3A) and body weight (FIG. 3B) were recorded on days 3, 6, 8, 10, 13 and 15.
as §2

MDA-MB-231 xenografts = experiment: Tumor suppression in MDA-MB-231 xenograft animals; assay type: in vivo, mice; conditions: IV 30 and 60 mg/kg and oral 200 mg/kg
Description: as §1

[8] = Tumor pharmacokinetic studies, IV QDx6; assay type: in vivo, mice; conditions: 30 mg/kg IV QD×6
[9] = Sprague-Dawley, IV 2.50 mg/kg, SD rats
[10] = dog, 0.8 mg/kg, IV 0.80 mg/kg, Beagle dogs
[11] = dog, PO 3.80 mg/kg, Beagle dogs
[12] = Sprague-Dawley, PO 8.06 mg/kg, SD-Rats

Compound: O=C(O)c1ccc2c(c1)nc(Nc1cccc(Cl)c1)c1ccncc12 [Compound A1]
tumor growth ([1]; BX-PC3 xenograft mice, oral administration): significantly inhibited tumor growth | tumor growth (PC-3 xenografts): significantly inhibited tumor growth | tumor growth (MCF-7 xenografts): significantly inhibited tumor growth | Tmax ([2]; Sprague-Dawley, po, […]): 1 h | half-life ([2]; Sprague-Dawley, po, […]): 270 min | Cmax [2, 9]: 21300 ng/mL | Vd [2, 9]: 2.5 L/kg | half-life [2, 9]: 588 min | caspase-3 cell staining levels versus untreated control cells (caspase-3 cell staining): four-fold greater | tumor growth [3]: significantly inhibited tumor growth | CLs ([4]; IV 5 mg/kg): 1.5 L/kg/h | Cp0-exp ([4]; IV 5 mg/kg): 13201 ng/mL | Kel ([4]; IV 5 mg/kg): 0.1586 h⁻¹ | F(0-8 h) ([4]; PO 25 mg/kg): 10.9% | F(0-inf h) ([4]; PO 25 mg/kg): 18.7% | Kel ([4]; PO 25 mg/kg): 0.1076 h⁻¹ | half-life ([4]; IV 5 mg/kg): 264 min | half-life ([4]; PO 25 mg/kg): 384 min | compound identified in plasma ([5]; 30 mg/kg IV): about 6.8 micromolar | compound identified in tumors ([5]; 30 mg/kg IV): about 42.9 micromolar | compound identified in plasma ([5]; 60 mg/kg IV): ~2.2 µM | compound identified in tumors ([5]; 60 mg/kg IV): ~7.0 µM | compound identified in plasma ([5]; 200 mg/kg orally): ~9.5 µM | compound identified in tumors ([5]; 200 mg/kg orally): ~6.4 µM | AUC(0-12 h) ([6]; IV 0.80 mg/kg, Beagle dogs): 349 ng · h · mI^−1 | AUC(0-Inf) ([6]; IV 0.80 mg/kg, Beagle dogs): 352 ng · h · mI^−1 | CLs ([6]; IV 0.80 mg/kg, Beagle dogs): 2.3 L/kg/h | Cp0-exp ([6]; IV 0.80 mg/kg, Beagle dogs): 1406 ng/mL | Kel ([6]; IV 0.80 mg/kg, Beagle dogs): 0.5546 h⁻¹ | AUC(0-Inf) ([6]; IV MC 0.80 mg/kg, Beagle dogs): 633 ng · h · mI^−1 | Cmax [6, 10]: 1040 ng/mL | Vd [6, 10]: 4.1 L/kg | half-life [6, 10]: 72 min | Cmax [6, 11]: 495 ng/mL | Tmax [6, 11]: 30 min | half-life [6, 11]: 72 min

AUC(0-12 h) ([2]; IV 1.56 mg/kg, SD Rats): 39194 ng · h · mI^−1 | AUC(0-Inf) ([2]; IV 1.56 mg/kg, SD Rats): 36659 ng · h · mI^−1 | CLs ([2]; IV 1.56 mg/kg, SD Rats): 0.1 L/kg/h | Cp0-exp ([2]; IV 1.56 mg/kg, SD Rats): 47935 ng/mL | Kel ([2]; IV 1.56 mg/kg, SD Rats): 0.1215 h⁻¹ | tl/2 ([2]; IV 1.56 mg/kg, SD Rats): 5.7 h | AUC(0-12 h) ([2]; PO 8.06 mg/kg, SD-Rats): 73945 ng · h · mI^−1 | AUC(0-Inf) ([2]; PO 8.06 mg/kg, SD-Rats): 80286 ng · h · mI^−1 | F(0-8 h) ([2]; PO 8.06 mg/kg, SD-Rats): 31.2% | F(0-12 h) ([2]; PO 8.06 mg/kg, SD-Rats): 37.7% | F(0-Inf) ([2]; PO 8.06 mg/kg, SD-Rats): 43.8% | Kel ([2]; PO 8.06 mg/kg, SD-Rats): 0.1077 h⁻¹ | tl/2 ([2]; PO 8.06 mg/kg, SD-Rats): 6.4 h | Cmax ([2]; Sprague-Dawley, IV 1.56 mg/kg, SD Rats): 34300 ng/mL | Cmax [2, 12]: 6670 ng/mL | Tmax [2, 12]: 2 h | Vd ([2]; IV 1.56 mg/kg, SD Rats): 0.6 L/kg | half life change on repeated dosing [8]: about doubles | AUC(0-12 h) ([6]; IV 2.00 mg/kg, Dog): 1414 ng · h · mI^−1 | AUC(0-Inf) ([6]; IV 2.00 mg/kg, Dog): 1437 ng · h · mI^−1 | CLs ([6]; IV 2.00 mg/kg, Dog): 1.4 L/kg/h | Cp0-exp ([6]; IV 2.00 mg/kg, Dog): 3847 ng/mL | Kel ([6]; IV 2.00 mg/kg, Dog): 0.1360 h⁻¹ | tl/2 ([6]; IV 2.00 mg/kg, Dog): 5.1 h | Cmax ([6]; beagle, IV 2.00 mg/kg, Dog): 3070 ng/mL | Vd ([6]; beagle, IV 2.00 mg/kg, Dog): 10.2 L/kg | Cmax ([6]; beagle, PO 7.50 mg/kg, Dog): 1210 ng/mL | Tmax ([6]; beagle, PO 7.50 mg/kg, Dog): 60 min
Compound: C#Cc1cccc(Nc2nc3cc(C(=O)O)ccc3c3cncnc23)c1 [Compound A2]
body weight (FIG. 4B) [7]: not significantly altering body weight | tumor progression (FIG. 4A) ([1]; BC-PC3 xenograft, 60 mg/kg QD IV, 50 mg/kg BID IV or 100 mg/kg BID IP): significantly inhibited tumor progression | concentration range inhibiting tube formation (HUVEC cells): 1 to 5 µM | tumor progression (MiaPaca xenografts; IV 50 and 60 mg/kg and IP 100 mg/kg): significantly inhibited tumor progression | tumor progression (MiaPaca xenografts; oral 100 mg/kg QD×8 and 200 mg/kg QD×6): significantly inhibited tumor progression | tumor progression (MDA-MB-231 xenografts): significantly inhibited tumor progression
